Data taken from publication PMC4861903, “Synthesis of a highly water-soluble acacetin prodrug for treating experimental atrial fibrillation in beagle dogs” (Scientific Reports, 2016).
Like-named read-outs stand apart in the source and are kept apart here.

Experiments:
[1] = Aqueous solubility by HPLC in H2O, 5% glucose and 0.9% NaCl; assay type: physicochemical; conditions: for solubility: 24 °C, room temperature (23–25 °C), n = 3, read-out: maximum solubility
[2] = Ex vivo bioconversion of acacetin prodrug in rat plasma; assay type: in vitro ADME; conditions: 37 °C, n = 3
Procedure: The ex vivo bioconversion of acacetin prodrug was determined in rat plasma or rat hepatic microsome that contains high content alkaline phosphatase, as described previously[30] and in Supplemental Materials. The in vivo bioconversion of acacetin prodrug was determined in beagle dogs as described in Supplemental Materials. […]
Bioconversion of acacetin prodrug in rat plasma and hepatic microsomes
Hydrolysis of acacetin prodrug was initially determined in rat plasma. The 100 µL rat plasma samples containing 5 µg/mL prodrug was prepared at 4 °C and then incubated in a water bath at 37 °C and continuously shaken at 60 rpm. The plasma samples were collected at 0, 5, 15, 30, 60, 120, 180, 240 and 360 min, respectively. The reaction was terminated by adding 1 mL cold methanol containing the IS solution (50 ng/mL pentamethylquercetin). […]
The reaction mixture […]
was prepared in 50 mM Tris-HCl buffer (pH = 7.4) with 1 mM NADPH (nicotinamide adenine dinucleotide phosphate) and 0.5 mg/mL (total protein) microsomes. Prodrug solutions were added to the microsomes reaction mixture with a final concentration of 5 µg/mL. The reaction solution was incubated in a water bath at 37℃ and shaken at 60 rpm for 1 h. The samples were collected at 0, 1, 2, 15, 30 and 60 min. […] After centrifugation at 12000 g for 30 min, the supernatant was immediately analyzed by HPLC. […]

[3] = Acute toxicity assessment in ICR mice, single i.v. dose; assay type: in vivo; conditions: both sexes, ICR, mouse, in vivo, iv, Bliss method
Procedure: (§1) The acute toxicity of acacetin prodrug was assessed in ICR mice (weighing 18~22 g) as described in Supplemental Materials, and the LD50 was calculated by the Bliss method. […]
(§2) Acute toxicity assessment of acacetin prodrug
(§3) The acute toxicity of acacetin prodrug was assessed in ICR mice (weighing 18~22 g) provided by the Laboratory Animal Center of Hong Kong University (Hong Kong, China) and maintained under controlled temperature conditions (23 °C), with a constant 12 h light-dark cycle and free access to food and water. Sixty ICR mice (male, 30; female, 30) were stratified by weight and randomly assigned to six groups: (n = 10 in each group, 5 male and 5 female).
(§4) Acacetin prodrug dissolved in 5% glucose was intravenously administered at 900, 810, 765, 720, 630 and 540 mg/kg through tail vein, respectively. The animals were closely observed for symptoms and mortality in 24 h. All of the surviving animals were euthanized at the end of the study, and their vital organs were individually observed for gross pathology by necropsy, and the LD50 was calculated by the Bliss method.11, 12

ICR mice = experiment: as above; assay type: in vivo
Procedure: as §1, §2, §3, §4

COc1ccc(-c2cc(=O)c3c(O)cc(OP(=O)([O-])[O-])cc3o2)cc1.[Na+].[Na+] [acacetin prodrug, phosphate sodium salt of acacetin]
solubility ([1]; saline or isotonic, in 0.9% NaCl): 88.6 ± 4.3 mg/mL | solubility ([1]; saline or isotonic, in 5% glucose): 91.4 ± 2.7 mg/mL | solubility ([1]; water, in H2O): 126 ± 2.5 mg/mL | solubility higher compared to parent compound acacetin ([1]; in 5% glucose or 0.9% NaCl): more than forty five thousand folds higher | solubility higher compared to parent compound acacetin ([1]; in H2O): more than 1.9 million folds | prodrug converted into acacetin ([2]; 60 min incubation): 50% | prodrug converted into acacetin ([2]; within 240 min incubation): 100% | LD50 at 24 h ([3]; read-out: LD50 with 95% confidence level): 685 to 760 mg/kg | LD50 at 24 h ([3]; intravenous (tail vein), single dose, read-out: LD50): 722 mg/kg | mortality (ICR mice; i.v. dose of 900 mg/kg): all animals died | survival within 24 h (ICR mice; i.v. dose of up to 540 mg/kg): All animals survived | adverse effects or signs of toxicity in the surviving animals (ICR mice; i.v., 24 h observation): No significant adverse effects or signs of toxicity | necropsy of the surviving mice (ICR mice; i.v., end of study): no gross pathological alteration | LD50 (ICR mice; intravenous (tail vein), single dose, Bliss method): 721 mg/kg
